Measurements reported in patent US20240325413A1, “FORMULATIONS FOR THE TREATMENT OF RESPIRATORY DISORDERS” (484 Science Corp, priority 2021, published 2024).

Legend:
[1] = Total emitted dose of the APIs from pMDI prototype formulations, HPLC assay; format: physicochemical; set-up: unit not given here; settings: pMDI Formulation 1-4; for emitted dose, Mean: Mean of ED 1 to ED 8
Experimental: An optimized HPLC assay method was developed for the assay of prototype formulations.
The total emitted dose from APIs ED 1 to ED 8 was then analyzed using the HPLC Assay.

[2] = Next Generation Impactor (NGI) testing of pMDI prototype formulations; format: physicochemical; settings: for Fine Particle Dose: Stages 3 to MOC; for Actual Emitted dose: Throat stage to MOC
Experimental: The Next Generation Pharmaceutical Impactor (NGI) testing is performed using Copley and MSP instruments. Emitted dose or Ex-device is calculated as the total dose deposited in the NGI apparatus starting from Throat stage to Micro-orifice collector (MOC). The Fine Particle Dose (FPD) is calculated as the total dose deposited in Stages 3 to MOC of the NGI apparatus. Mass Median Aerodynamic Diameter (MMAD) and Geometric Standard Deviation (GSD) is calculated from aerodynamic particle size distribution of particles in different stages of the NGI apparatus.

Structure (SMILES)	emitted dose ([1]; ED 7)	emitted dose ([1]; ED 8)	emitted dose, Mean [1]	% Emitted dose ([2]; Formulation 1) [%]	% Fine Particle Dose ([2]; Formulation 1) [%]	GSD ([2]; Formulation 1)	MMAD ([2]; Formulation 1) [µm]	Fine Particle Dose ([2]; Formulation 1) [µg]	Actual Emitted dose ([2]; Formulation 1) [µg]	% Emitted dose ([2]; Formulation 4) [%]	% Fine Particle Dose ([2]; Formulation 4) [%]	GSD ([2]; Formulation 4)	MMAD ([2]; Formulation 4) [µm]	Fine Particle Dose ([2]; Formulation 4) [µg]	Actual Emitted dose ([2]; Formulation 4) [µg]	% Emitted dose ([2]; Formulation 2) [%]	% Fine Particle Dose ([2]; Formulation 2) [%]	GSD ([2]; Formulation 2)	MMAD ([2]; Formulation 2) [µm]	Fine Particle Dose ([2]; Formulation 2) [µg]	also measured
CCCCCc1cc(O)c2c(c1)OC(C)(CCC=C(C)C)C=C2 (stereo not shown) [CBC, cannabichromene]	262.4	269.8	266.1	89	36	3	4.5	108.6	266.1	105	36	3	5.2	71.1	209.4						
C=C(C)[C@@H]1CCC(C)=C[C@H]1c1c(O)cc(CCCCC)cc1O [CBD, cannabidiol, reference compound]	301.6	304.3	298.0	104	41	3	4.6	122.8	312.1	96	36	3	4.75	109.5	288.1	96	37	3	4.5	111.0	emitted dose ([1]; ED 1): 287.0; emitted dose ([1]; ED 2): 289.2; emitted dose ([1]; ED 3): 308.0; emitted dose ([1]; ED 4): 316.2; emitted dose ([1]; ED 5): 284.9; emitted dose ([1]; ED 6): 292.6; Actual Emitted dose ([2]; Formulation 2): 288.7 µg; % Emitted dose ([2]; Formulation 3): 101%; % Fine Particle Dose ([2]; Formulation 3): 40%; GSD ([2]; Formulation 3): 3; MMAD ([2]; Formulation 3): 4.4 µm; Fine Particle Dose ([2]; Formulation 3): 120.8 µg; Actual Emitted dose ([2]; Formulation 3): 303.0 µg
C=C(C)[C@@H]1CCC(C)=C[C@H]1c1c(O)cc(CCC)cc1O [CBDV, cannabidivarin]	265.4	278.5	272.0							98	33	3	5.1	66.5	195.2						% Emitted dose ([2]; Formulation 3): 91%; % Fine Particle Dose ([2]; Formulation 3): 36%; GSD ([2]; Formulation 3): 3; MMAD ([2]; Formulation 3): 4.6 µm; Fine Particle Dose ([2]; Formulation 3): 108.0 µg; Actual Emitted dose ([2]; Formulation 3): 272.0 µg
CCCCCc1cc(O)c(C/C=C(\C)CCC=C(C)C)c(O)c1 [CBG, cannabigerol]	331.0	332.1	335.2	115	43	3	4.7	129.5	345.7	106	34	3	5.25	67.5	212.1	109	39	3	4.65	118.0	emitted dose ([1]; ED 3): 338.2; emitted dose ([1]; ED 4): 353.3; emitted dose ([1]; ED 5): 323.7; emitted dose ([1]; ED 6): 332.9; Actual Emitted dose ([2]; Formulation 2): 328.3 µg; % Emitted dose ([2]; Formulation 3): 111%; % Fine Particle Dose ([2]; Formulation 3): 43%; GSD ([2]; Formulation 3): 3; MMAD ([2]; Formulation 3): 4.5 µm; Fine Particle Dose ([2]; Formulation 3): 127.5 µg; Actual Emitted dose ([2]; Formulation 3): 331.6 µg
CCCCCc1cc(O)c2c(c1)OC(C)(C)c1ccc(C)cc1-2 [CBN, cannabinol]	255.7	263.5	259.6							95	34	3	5	68.2	189.1	87	35	3	4.4	105.8	Actual Emitted dose ([2]; Formulation 2): 259.6 µg
C[N+]1(C)CCC(OC(=O)C(O)(c2ccccc2)C2CCCC2)C1 (stereo not shown) [Glycopyrronium, glycopyrronium, reference compound]	27.0	30.2	29.0	104	29	2	4.9	7.8	28.0	104	25	2	5.65	6.8	28.1	116	28	2	5.15	7.7	emitted dose ([1]; ED 1): 27.6; emitted dose ([1]; ED 2): 28.7; emitted dose ([1]; ED 3): 27.5; emitted dose ([1]; ED 4): 28.5; emitted dose ([1]; ED 5): 30.3; emitted dose ([1]; ED 6): 32.4; Actual Emitted dose ([2]; Formulation 2): 31.4 µg; % Emitted dose ([2]; Formulation 3): 106%; % Fine Particle Dose ([2]; Formulation 3): 31%; GSD ([2]; Formulation 3): 2; MMAD ([2]; Formulation 3): 5.1 µm; Fine Particle Dose ([2]; Formulation 3): 8.3 µg; Actual Emitted dose ([2]; Formulation 3): 28.6 µg
